The values below come from patent US7064217B2 (University of Virginia Patent Foundation, priority 2001, dated 2006).

Common to all, as to type: biochemical
In one experiment the target is T1, hS1P2 (Homo sapiens, UniProt O95136).
T1 construct: expressed in transfected cells; host or cells: HEK293T
Put plainly: [γ-35S]GTP binding to HEK293T cell membranes, hS1P2. The conditions noted are these: GTPγS binding; for activity at the S1P2 receptor: Example 3 series; for EC50: read-out: EC50 Values (nM) for S1P Analogues at Recombinant S1P Receptors, hS1P2, HEK293. On the procedure:
(§1) Human or mouse S1P5 DNA was mixed with an equal amount of DNA encoding a rat Gi2R protein as well as DNAs encoding cow β1 and γ2 proteins and used to transfect monolayers of HEK293T cells using the calcium phosphate precipitate method. After 60 h, cells were harvested, and microsomes were prepared, aliquoted, and stored at −70° C. until use.
(§2) After incubating for 30 min at 30° C., bound radionuclide was separated from free by filtration through Whatman GF/C paper using a Brandel Cell Harvester (Gaithersburg, Md.).
(§3) Assay of cAMP accumulation was performed as described previously (See Im et al., J. Biol. Chem. 275, 14281–14286 (2000), the disclosure of which is incorporated herein). Assays were conducted on populations of 5×10^5 cells stimulated with 1 uM forskolin in the presence of the phosphodiesterase inhibitor […] (IBMX, 1 mM) for 15 min. cAMP was measured by automated radioimmunoassay. The GTPγS studies were performed using zebrafish S1P1 overexpressed rat RH-7777 and human hS1P1, hS1P2, hS1P3 and hS1P5 overexpressed human HEK293 cells.
(§4) An additional series of compounds was tested using the GTPγS binding assay described in Example 2 and in Im et al., J. Biol. Chem. 275, 14281–14286 (2000), the disclosure of which is incorporated herein).

Another experiment addresses T2, hS1P4 (Homo sapiens, UniProt O95977).
T2 construct: expressed in transfected cells; host or cells: HEK293T
T2 sequence (O95977 1-384): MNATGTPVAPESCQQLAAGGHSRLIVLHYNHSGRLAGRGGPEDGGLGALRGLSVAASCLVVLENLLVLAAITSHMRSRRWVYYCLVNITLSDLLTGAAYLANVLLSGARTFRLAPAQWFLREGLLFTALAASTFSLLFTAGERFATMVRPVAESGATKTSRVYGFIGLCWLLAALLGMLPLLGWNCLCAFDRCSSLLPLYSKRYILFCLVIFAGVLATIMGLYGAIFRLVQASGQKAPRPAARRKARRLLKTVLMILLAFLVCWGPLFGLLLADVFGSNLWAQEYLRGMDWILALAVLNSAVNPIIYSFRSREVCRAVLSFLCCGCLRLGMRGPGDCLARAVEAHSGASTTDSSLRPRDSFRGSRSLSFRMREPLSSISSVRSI
Put plainly: [γ-35S]GTP binding to HEK293T cell membranes, hS1P4. The settings on record: GTPγS binding, primary alcohols. On the procedure:
as §2, §4
(Binding of GTPγS marks nucleotide exchange on a G protein.)

The next experiment concerns S1P receptors. Put plainly: [γ-35S]GTP binding assay, statements across the recombinant S1P receptors tested. The conditions noted are these: GTPγS binding. On the procedure:
as §1, §2, §3, §4

The target in a further experiment is T3, zS1P1 (Danio rerio, UniProt Q9DDK4).
T3 construct: expressed in transfected cells; host or cells: rat hepatoma RH-7777
T3 sequence (Q9DDK4 1-362): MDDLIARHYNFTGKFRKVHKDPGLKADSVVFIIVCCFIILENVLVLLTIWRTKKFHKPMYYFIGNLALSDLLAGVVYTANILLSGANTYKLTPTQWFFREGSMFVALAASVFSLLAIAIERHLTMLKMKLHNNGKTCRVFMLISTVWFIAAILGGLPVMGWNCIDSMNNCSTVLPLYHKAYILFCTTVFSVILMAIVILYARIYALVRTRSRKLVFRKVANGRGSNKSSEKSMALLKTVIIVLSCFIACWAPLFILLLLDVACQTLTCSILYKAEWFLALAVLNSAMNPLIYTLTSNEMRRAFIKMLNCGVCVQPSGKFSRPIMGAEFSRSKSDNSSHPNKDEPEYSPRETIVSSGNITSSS
Kind of experiment: [γ-35S]GTP binding, zebrafish S1P1 overexpressed in rat RH-7777 cells. The conditions noted are these: GTPγS binding, zebrafish S1P1 in rat RH-7777. On the procedure:
as §2
Rat hepatoma RH7777 cell monolayers were transfected with human or mouse S1P5/pCR3.1 DNA using the calcium phosphate precipitate method, and clonal populations expressing the neomycin phosphotransferase gene were selected by addition of Ge-neticin (G418) to the culture medium. The RH7777 cells were grown in monolayers at 37° C. in a 5%CO2/95% air atmosphere in growth medium consisting of 90% MEM, 10% fetal bovine serum, 2 mM glutamine, and 1 mM sodium pyruvate.
as §3

A further experiment concerns the target T4, hS1P1 (Homo sapiens, UniProt P21453).
T4 construct: expressed in transfected cells; host or cells: HEK293T
Put plainly: [γ-35S]GTP binding to HEK293T cell membranes, hS1P1. The settings on record: GTPγS binding; for EC50: read-out: EC50 Values (nM) for S1P Analogues at Recombinant S1P Receptors, hS1P1, HEK293. On the procedure: as §1, §2, §3, §4

A further experiment has as its target T5, hS1P3 (Homo sapiens, UniProt Q99500).
T5 construct: expressed in transfected cells; host or cells: HEK293T
Kind of experiment: [γ-35S]GTP binding to HEK293T cell membranes, hS1P3. The settings on record: GTPγS binding; for EC50: read-out: EC50 Values (nM) for S1P Analogues at Recombinant S1P Receptors, hS1P3, HEK293; for activity at the S1P3 receptor (inverse agonism/antagonism or agonism): Example 3 series. On the procedure:
as §1, §2, §3, §4

The target in a further experiment is T6, mS1P5 (Mus musculus, UniProt Q91X56).
T6 construct: expressed in transfected cells; host or cells: HEK293T
Put plainly: [γ-35S]GTP binding to HEK293T cell membranes, mS1P5. The conditions noted are these: GTPγS binding. On the procedure: as §1, §2, §3

The target in the next experiment is T7, hS1P5 (Homo sapiens, UniProt Q9H228).
T7 construct: expressed in transfected cells; host or cells: HEK293T
Kind of experiment: [γ-35S]GTP binding to HEK293T cell membranes, hS1P5. The conditions noted are these: read-out: EC50 Values (nM) for S1P Analogues at Recombinant S1P Receptors, hS1P5; GTPγS binding; HEK293. How it is done:
as §1, §2, §3, §4

[1] abbreviates: read-out: EC50 Values (nM) for S1P Analogues at Recombinant S1P Receptors, zS1P1.
Where [2] appears, read: read-out: EC50 Values (nM) for S1P Analogues at Recombinant S1P Receptors, mS1P5.

Entries after “also recorded” stand apart in the source; their conditions may differ. Where two headings read alike, the source gives them in different places.

T6 sequence (Q91X56 whole entry): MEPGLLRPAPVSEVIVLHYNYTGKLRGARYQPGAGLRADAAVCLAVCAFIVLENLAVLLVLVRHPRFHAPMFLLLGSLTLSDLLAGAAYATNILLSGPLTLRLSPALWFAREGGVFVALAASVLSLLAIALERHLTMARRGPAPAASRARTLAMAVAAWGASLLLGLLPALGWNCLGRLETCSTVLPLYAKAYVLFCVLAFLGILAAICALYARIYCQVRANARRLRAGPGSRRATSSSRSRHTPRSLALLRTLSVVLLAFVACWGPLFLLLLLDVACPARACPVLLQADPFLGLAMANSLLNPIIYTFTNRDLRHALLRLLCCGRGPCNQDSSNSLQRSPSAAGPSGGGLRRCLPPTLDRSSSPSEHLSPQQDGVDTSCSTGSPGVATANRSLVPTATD
T1 sequence (O95136 whole entry): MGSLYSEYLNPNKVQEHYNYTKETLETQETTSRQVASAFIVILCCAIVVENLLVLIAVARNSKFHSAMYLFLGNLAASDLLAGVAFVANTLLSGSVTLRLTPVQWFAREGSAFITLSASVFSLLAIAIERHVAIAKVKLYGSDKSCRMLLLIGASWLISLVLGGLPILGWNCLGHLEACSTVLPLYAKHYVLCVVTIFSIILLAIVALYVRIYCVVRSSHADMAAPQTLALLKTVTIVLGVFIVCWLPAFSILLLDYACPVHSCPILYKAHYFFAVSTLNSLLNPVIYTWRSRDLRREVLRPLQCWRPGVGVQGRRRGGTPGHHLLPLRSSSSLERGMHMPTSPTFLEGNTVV
T7 sequence (Q9H228 whole entry): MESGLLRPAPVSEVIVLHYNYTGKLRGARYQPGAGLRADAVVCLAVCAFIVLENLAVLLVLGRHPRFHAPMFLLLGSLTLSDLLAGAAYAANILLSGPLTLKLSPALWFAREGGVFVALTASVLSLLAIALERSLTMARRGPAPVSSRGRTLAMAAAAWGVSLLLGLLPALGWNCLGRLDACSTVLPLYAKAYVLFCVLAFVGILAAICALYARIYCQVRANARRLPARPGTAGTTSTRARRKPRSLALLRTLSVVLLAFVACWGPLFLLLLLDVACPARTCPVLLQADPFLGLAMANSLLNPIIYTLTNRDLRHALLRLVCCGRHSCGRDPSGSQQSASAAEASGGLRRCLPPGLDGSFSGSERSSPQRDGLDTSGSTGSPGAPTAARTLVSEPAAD
T4 sequence (P21453 whole entry): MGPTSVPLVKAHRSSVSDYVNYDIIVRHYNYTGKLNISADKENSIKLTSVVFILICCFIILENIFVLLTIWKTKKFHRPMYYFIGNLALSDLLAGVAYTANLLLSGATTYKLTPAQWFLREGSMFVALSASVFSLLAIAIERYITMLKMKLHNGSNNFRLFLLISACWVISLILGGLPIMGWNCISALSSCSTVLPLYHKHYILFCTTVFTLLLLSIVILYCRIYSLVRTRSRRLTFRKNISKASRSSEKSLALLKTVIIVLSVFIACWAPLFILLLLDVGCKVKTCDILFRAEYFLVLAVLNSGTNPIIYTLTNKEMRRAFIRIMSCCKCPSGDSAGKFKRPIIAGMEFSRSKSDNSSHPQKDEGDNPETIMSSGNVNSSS
T5 sequence (Q99500 whole entry): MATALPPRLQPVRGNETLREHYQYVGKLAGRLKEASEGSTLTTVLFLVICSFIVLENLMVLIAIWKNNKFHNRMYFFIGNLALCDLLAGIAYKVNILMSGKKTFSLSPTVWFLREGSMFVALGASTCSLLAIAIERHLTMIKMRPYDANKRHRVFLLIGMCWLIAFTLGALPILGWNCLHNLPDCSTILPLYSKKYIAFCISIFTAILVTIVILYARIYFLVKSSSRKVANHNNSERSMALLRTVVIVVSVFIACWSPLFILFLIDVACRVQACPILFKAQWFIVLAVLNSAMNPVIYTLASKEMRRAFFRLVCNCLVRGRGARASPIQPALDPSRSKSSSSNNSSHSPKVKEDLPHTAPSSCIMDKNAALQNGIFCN

For the compound `CCCCCCCCCCc1cccc(NC(=O)[C@H](N)CO)c1.O=C(O)C(F)(F)F` [VPC23065], on hS1P2, the “activity at the S1P2 receptor” value was “failed to show significant activity; also recorded: inactive”. Also, the “agonist activity at the S1P4 receptor” value on hS1P4 is “good agonist activity”. Moreover, the “agonist activity at S1P receptors” value with S1P receptors is given as “significant agonist activity”.
The term EC50 denotes the concentration giving half of the maximal effect. `CCCCCCCCCCCCC/C=C/[C@@H](O)[C@@H](N)COP(=O)(O)O` [Compound S1P, Sphingosine-1-phosphate, reference compound]: the EC50 at zS1P1 was 54.6 nM; on hS1P1 it was 0.9 nM; on hS1P3, 1.1 nM; at mS1P5, 12.7 nM.
Consider `CCCCCCCCCCCCCCNC(=O)[C@@H](N)COP(=O)(O)O` [VPC22051], for which the EC50 at zS1P1 (setting [1]) was over 5000 nM; at hS1P1, 322 nM; on hS1P3, 602 nM; at hS1P2, 2760 nM; on hS1P5, over 5000 nM; on mS1P5 (setting [2]), over 5000 nM.
As to `CCCCCCc1cccc(NC(=O)[C@H](N)COP(=O)(O)O)c1.O=C(O)C(F)(F)F` [VPC23031], at hS1P3, the “activity at the S1P3 receptor (inverse agonism/antagonism or agonism)” value is recorded as “inverse agonists”. Moreover, the “activity at the S1P2 receptor” value at hS1P2 was “failed to show significant activity; also recorded: inactive”.
As for `CCCCCCCCCCc1cccc(NC(=O)[C@H](N)COP(=O)(O)O)c1.O=C(O)C(F)(F)F` [VPC23069], the “activity at the S1P3 receptor (inverse agonism/antagonism or agonism)” value at hS1P3 is “agonism”. Besides, the “activity at the S1P2 receptor” value at hS1P2 was “failed to show significant activity; also recorded: inactive”.
On to `CCCCCCCCCCCCCCOC(=O)[C@@H](N)COP(=O)(O)O.O=C(O)C(F)(F)F` [VPC22053], for which the EC50 was over 5000 nM on zS1P1 (setting [1]); 397 nM at hS1P1; 862 nM at hS1P3; 2680 nM at hS1P2; 1610 nM at hS1P5; 2010 nM at mS1P5 (setting [2]). For the same compound, the “loss of potency relative to enantiomer VPC22135 at S1P1 receptor” value at hS1P1 is “more than 1 log order”. Also, at hS1P3, the “loss of potency relative to enantiomer VPC22135 at S1P3 receptor” value is listed as “more than 1 log order”.
As for `CCCCCCCCCCCCNC(=O)[C@@H](N)COP(=O)(O)O` [VPC22041], the EC50 on zS1P1 is 2050 nM; on hS1P1, 598 nM; on hS1P3, 845 nM; on hS1P2 it was 973 nM; at hS1P5, 646 nM; at mS1P5, over 5000 nM.
For `CCCCCCCCc1ccccc1NC(=O)[C@H](N)COP(=O)(O)O` [VPC23089], at hS1P3, the “activity at the S1P3 receptor (inverse agonism/antagonism or agonism)” value is reported as “inverse agonists”. In addition, the “activity at the S1P2 receptor” value on hS1P2 is “failed to show significant activity; also recorded: inactive”.
In the case of `CCCCCCCCCc1cccc(NC(=O)[C@H](N)CO)c1.O=C(O)C(F)(F)F` [VPC23075], the “activity at the S1P2 receptor” value at hS1P2 is “failed to show significant activity; also recorded: inactive”. On hS1P4, the “agonist activity at the S1P4 receptor” value is reported as “good agonist activity”. In the experiment on S1P receptors, the “agonist activity at S1P receptors” value is reported as “significant agonist activity”.
Turning to `CCCCCCCCCCCCCCCCNC(=O)[C@@H](N)COP(=O)(O)O` [VPC22063], the EC50 on zS1P1 is over 5000 nM; on hS1P1, 1800 nM; at hS1P3, 879 nM; at hS1P5, 1220 nM; at mS1P5, 1330 nM.
Turning to `CCCCCCCCc1cccc(NC(=O)[C@H](N)COP(=O)(O)O)c1` [VPC23019], the “activity at S1P1 (antagonism)” value on hS1P1 (competition with S1P) is recorded as “antagonism”. In addition, the “activity at the S1P3 receptor (inverse agonism/antagonism or agonism)” value at hS1P3 is given as “inverse agonists”. For the same compound, the “activity at the S1P2 receptor” value at hS1P2 is “failed to show significant activity; also recorded: inactive”.
Take `CCCCCCCCc1ccccc1NC(=O)[C@H](N)CO.O=C(O)C(F)(F)F` [VPC23087]: on hS1P2, the “activity at the S1P2 receptor” value was “failed to show significant activity; also recorded: inactive”. Also, the “agonist activity at the S1P4 receptor” value on hS1P4 is on record as “good agonist activity”. In addition, the “agonist activity at S1P receptors” value with S1P receptors was “significant agonist activity”.
`CCCCCCCCCc1cccc(NC(=O)[C@H](N)COP(=O)(O)O)c1.O=C(O)C(F)(F)F` [VPC23079]: the “activity at the S1P3 receptor (inverse agonism/antagonism or agonism)” value on hS1P3 is “agonism”. Also, the “activity at the S1P2 receptor” value on hS1P2 is “failed to show significant activity; also recorded: inactive”.
With `CCCCCCCCCCCCCCNC(=O)[C@H](N)COP(=O)(O)O` [VPC22135], the EC50 at zS1P1 was found to be 1620 nM; at hS1P1, 12.7 nM; on hS1P3, 50.8 nM; at hS1P2 it was 2110 nM; at mS1P5 it was 1820 nM. Moreover, the “potency relative to S1P at human S1P1 receptor” value on hS1P1 is “approached the potency of S1P”. At hS1P3, the “potency relative to S1P at human S1P3 receptor” value is recorded as “approached the potency of S1P”.
